The source of these data is US9023857B2, “Substituted 6-(2-aminobenzylamino)purine derivatives, their use as medicaments and preparations containing these compounds” (Univerzita Palackeho V Olomouci, priority 2009, dated 2015).

The subject of one data set is HSV-1-deltaTK. Description: Plaque number reduction assay, HSV-1-deltaTK on HFFF. It counts as cell-based. The following applies: HSV-1 thymidine kinase (TK) deletion mutant on HFFF.
For data set [1], the system named is human T-lymphoblastoid leukaemic cell line CEM.
Data set [2] concerns promyelocytic leukemia HL 60.
Data set [3] deals with breast carcinoma MCF7.
Data set [4] deals with cervical carcinoma cells HELA.
The test system of data set [5] is human erythroleukaemia K562.
In data set [6] the test system is human malignant melanoma G 361.
The subject of data set [7] is human osteogenic sarcoma HOS.
Data set [8] deals with normal human fibroblasts BJ.
The next data set deals with CDK1/cyclin B (Homo sapiens, UniProt P06493). Description: CDK inhibition assay, CDK1/cyclin B.
Another data set concerns the target CDK2/cyclin E (Homo sapiens, UniProt P24941). Briefly: CDK inhibition assay, CDK2/cyclin E.
The next data set concerns the target CDK9/cyclin T (Homo sapiens, UniProt P50750). Description: CDK inhibition assay, CDK9/cyclin T.
Data set [9] relates to p53-responsive reporter pRGCΔfoslacZ in human melanoma cell line Arn8. Briefly: p53-dependent transcriptional activity, β-galactosidase reporter in Arn8 cells. As to conditions: concentration inducing maximum of β-galactosidase activity (p53-responsive reporter).
Data set [10] can be described thus: In vitro cytotoxic activity (Calcein AM, 72 hours), BJ. The following applies: human, BJ normal fibroblasts.
In data set [11] the test system is human T-lymphoblastoid leukaemic cell line CEM. Briefly: In vitro cytotoxic activity (Calcein AM, 72 hours), CEM. As to conditions: read-out: Cytotoxicity IC50 CEM.
Data set [12] deals with human osteogenic sarcoma HOS. Description: In vitro cytotoxic activity (Calcein AM, 72 hours), HOS. As to conditions: read-out: Cytotoxicity IC50 HOS.
The subject of data set [13] is breast carcinoma MCF7. Description: In vitro cytotoxic activity (Calcein AM, 72 hours), MCF7. As to conditions: Homo sapiens, MCF7, 72 h, read-out: Cytotoxicity IC50 MCF7.
Data set [14] relates to cervical carcinoma cells HELA. Description: In vitro cytotoxic activity (Calcein AM, 72 hours), HELA. As to conditions: Homo sapiens, read-out: Cytotoxicity IC50 HeLa.
Data set [15] deals with human erythroleukaemia K562. Description: In vitro cytotoxic activity (Calcein AM, 72 hours), K562. The following applies: K562, 72 h, read-out: Cytotoxicity IC50 K-562.
The test system of data set [16] is promyelocytic leukemia HL 60. Description: In vitro cytotoxic activity (Calcein AM, 72 hours), HL 60. The following applies: Homo sapiens, HL-60, 72 h, read-out: Cytotoxicity IC50 HL60.
Data set [17] relates to human malignant melanoma G 361. Description: In vitro cytotoxic activity (Calcein AM, 72 hours), G 361. As to conditions: G-361, 72 h, read-out: Cytotoxicity IC50 G361.
The next data set relates to VV. It counts as cell-based, Vaccinia virus strain WR. The following applies: Vaccinia virus on HFFF.
The mark [18] stands for this setting: read-out: IC50 CDK1, CDK1/cyclin B, 15 μM ATP, histone substrate.
[19] abbreviates: read-out: IC50 CDK2, CDK2/cyclin E, 15 μM ATP, histone substrate.
Where [20] appears, read: read-out: IC50 CDK9, CDK9/cyclin T, 15 μM ATP, histone substrate.

Read-outs that look alike come from different tables or passages of the source.

CDK9/cyclin T, sequence (P50750 whole entry, species assumed): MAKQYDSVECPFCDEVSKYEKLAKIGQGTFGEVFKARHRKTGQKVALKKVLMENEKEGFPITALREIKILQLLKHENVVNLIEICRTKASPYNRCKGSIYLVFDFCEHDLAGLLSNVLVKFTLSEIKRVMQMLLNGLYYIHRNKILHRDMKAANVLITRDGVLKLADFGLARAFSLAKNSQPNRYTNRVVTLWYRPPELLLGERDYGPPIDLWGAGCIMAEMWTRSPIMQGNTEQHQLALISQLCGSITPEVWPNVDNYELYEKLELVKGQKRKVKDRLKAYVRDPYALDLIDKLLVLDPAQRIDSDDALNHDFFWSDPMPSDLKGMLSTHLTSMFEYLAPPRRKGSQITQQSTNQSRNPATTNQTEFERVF
CDK9/cyclin T, sequence (O60563 whole entry partner, species assumed): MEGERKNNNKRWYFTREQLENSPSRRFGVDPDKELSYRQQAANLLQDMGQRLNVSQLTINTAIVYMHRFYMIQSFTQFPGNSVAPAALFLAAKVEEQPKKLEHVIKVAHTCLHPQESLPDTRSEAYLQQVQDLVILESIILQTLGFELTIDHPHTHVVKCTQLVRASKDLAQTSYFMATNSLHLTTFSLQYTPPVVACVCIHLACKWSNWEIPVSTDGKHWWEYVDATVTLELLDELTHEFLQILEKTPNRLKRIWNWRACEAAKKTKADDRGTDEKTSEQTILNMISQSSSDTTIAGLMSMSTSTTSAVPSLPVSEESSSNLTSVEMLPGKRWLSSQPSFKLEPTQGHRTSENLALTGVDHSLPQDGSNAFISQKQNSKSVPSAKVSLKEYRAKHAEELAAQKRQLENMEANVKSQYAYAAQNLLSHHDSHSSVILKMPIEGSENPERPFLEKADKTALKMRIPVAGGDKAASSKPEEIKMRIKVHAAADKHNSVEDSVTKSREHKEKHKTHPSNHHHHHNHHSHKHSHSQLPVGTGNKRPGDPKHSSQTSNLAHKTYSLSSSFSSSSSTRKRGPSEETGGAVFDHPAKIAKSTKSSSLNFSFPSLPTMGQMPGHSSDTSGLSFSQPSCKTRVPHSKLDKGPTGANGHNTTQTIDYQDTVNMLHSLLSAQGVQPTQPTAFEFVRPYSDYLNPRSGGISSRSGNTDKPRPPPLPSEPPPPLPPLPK
CDK1/cyclin B, sequence (P06493 whole entry, species assumed): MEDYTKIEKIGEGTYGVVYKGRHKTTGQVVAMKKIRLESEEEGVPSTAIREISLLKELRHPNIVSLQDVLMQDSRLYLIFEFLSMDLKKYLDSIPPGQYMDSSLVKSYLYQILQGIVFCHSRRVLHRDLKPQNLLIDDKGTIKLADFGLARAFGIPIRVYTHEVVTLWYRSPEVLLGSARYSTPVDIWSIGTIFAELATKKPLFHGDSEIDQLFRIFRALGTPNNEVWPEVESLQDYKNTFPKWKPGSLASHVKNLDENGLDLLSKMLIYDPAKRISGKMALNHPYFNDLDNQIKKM
CDK1/cyclin B, sequence (P14635 whole entry partner, species assumed): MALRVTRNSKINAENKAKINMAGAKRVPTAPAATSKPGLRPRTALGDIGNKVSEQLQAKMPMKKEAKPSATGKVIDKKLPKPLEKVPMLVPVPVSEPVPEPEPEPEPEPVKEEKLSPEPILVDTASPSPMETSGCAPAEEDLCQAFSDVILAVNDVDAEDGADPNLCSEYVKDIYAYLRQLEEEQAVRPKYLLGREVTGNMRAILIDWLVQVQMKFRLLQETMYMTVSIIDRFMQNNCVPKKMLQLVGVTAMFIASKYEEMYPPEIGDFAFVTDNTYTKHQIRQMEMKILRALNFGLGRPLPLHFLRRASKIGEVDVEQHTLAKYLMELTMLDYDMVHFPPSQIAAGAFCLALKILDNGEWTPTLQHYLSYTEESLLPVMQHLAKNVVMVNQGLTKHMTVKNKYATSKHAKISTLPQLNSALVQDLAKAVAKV

In the case of `Nc1nc2c(ncn2COCCO)c(=O)[nH]1` [Acyclovir, 9-[(2-Hydroxyethoxy)methyl]guanine, reference compound], the “inhibition of virus replication (in words)” value in the data set on HSV-1-deltaTK was “resistant”.

In the case of `CC(C)n1cnc2c(NCc3ccccc3N)nc(NC3CCCCC3N)nc21` (centres unmarked) [Compound 101], the half-inhibitory concentration (IC50) (usually the concentration that inhibits the measured activity by half) in data set [1] stood at 7 µM; in [2], 24 µM; in the data set on breast carcinoma MCF7 [3], 15.3 µM; in data set [4], 15 µM; in data set [5], 27 µM; in data set [6], 14 µM. Also, the IC50 in data set [7] was 25 µM; in data set [8], greater than 167 µM; on CDK1/cyclin B (setting [18]), 0.6 µM; on CDK2/cyclin E (setting [19]) it was 0.4 µM; on CDK9/cyclin T (setting [20]), 0.02 µM. Moreover, in data set [9], the “Max. β-Gal. Activtity Conc.” value came out at 22 µM.

On to `CC(C)n1cnc2c(NCc3cc(N)ccc3N)nc(NC3CCC(O)CC3)nc21` (centres unmarked) [Compound 161], for which the 50% inhibitory concentration (IC50) in [1] was 9 µM; in [2], 26 µM; with breast carcinoma MCF7 [3], 7 µM; in [4] it was 12 µM; in [5] it was 18 µM; in data set [6], 14 µM. Moreover, the IC50 in data set [7] is 26 µM; in [8], greater than 167 µM; at CDK1/cyclin B (setting [18]), 0.9 µM; on CDK2/cyclin E (setting [19]), 0.6 µM; at CDK9/cyclin T (setting [20]), 0.08 µM. Also, the “Max. β-Gal. Activtity Conc.” value in [9] turned out to be 20 µM.

On to `CCC(CO)Nc1nc(NCc2cc(Cl)ccc2N)c2ncn(C3CCCCC3)c2n1` (centres unmarked) [Compound 209], for which the IC50 against CDK1/cyclin B was 0.5 µM; on CDK2/cyclin E, 0.3 µM; against CDK9/cyclin T, 0.04 µM; in data set [11] it was 12 µM; in [12], 18 µM; in the data set with breast carcinoma MCF7 [13], 11 µM. For the same compound, the IC50 in data set [14] is 14 µM; in data set [15], 25 µM; in data set [16], 31 µM; in data set [17], 14 µM. The half-inhibitory concentration (IC50) at 72 h in data set [10] was greater than 167 µM. In data set [9], the “Max. β-Gal. Activtity Conc.” value turned out to be 20 µM.

For the compound `Nc1ccccc1CNc1nc(NC2CCC(N)CC2)nc2c1ncn2Cc1ccccc1` (centres unmarked) [Compound 231], the IC50 against CDK1/cyclin B is 0.8 µM; against CDK2/cyclin E it was 0.5 µM; on CDK9/cyclin T, 0.05 µM; in data set [11], 12 µM; in data set [12], 23 µM; in the data set with breast carcinoma MCF7 [13] it was 15 µM. In addition, the 50% inhibitory concentration (IC50) in data set [14] was 16 µM; in data set [15] it was 37 µM; in [16], 32 µM; in data set [17], 15 µM. Also, the IC50 at 72 h in data set [10] was greater than 167 µM. Besides, the “Max. β-Gal. Activtity Conc.” value in data set [9] came to 18 µM.

On to `CCC(CO)Nc1nc(NCc2ccccc2N)c2ncn(Cc3ccccc3)c2n1` (centres unmarked) [Compound 234], for which the half-inhibitory concentration (IC50) against CDK1/cyclin B was 0.7 µM; against CDK2/cyclin E, 0.4 µM; at CDK9/cyclin T, 0.03 µM; in [11], 16 µM; in [12], 17 µM; in the data set on breast carcinoma MCF7 [13], 11 µM. The half-inhibitory concentration (IC50) in data set [14] was 18 µM; in [15], 25 µM; in data set [16], 33 µM; in data set [17] it was 18 µM. In addition, the half-inhibitory concentration (IC50) at 72 h in [10] was greater than 167 µM. Further, in data set [9], the “Max. β-Gal. Activtity Conc.” value was found to be 24 µM.

As to `CCC(CO)Nc1nc(NCc2cc(Cl)ccc2N)c2ncn(Cc3ccccc3)c2n1` (centres unmarked) [Compound 247], the IC50 against CDK1/cyclin B is 0.8 µM; at CDK2/cyclin E it was 0.6 µM; at CDK9/cyclin T, 0.07 µM; in data set [11], 15 µM; in data set [12] it was 22 µM; in the data set with breast carcinoma MCF7 [13], 14 µM. Moreover, the IC50 in data set [14] was 19 µM; in data set [15], 41 µM; in data set [16], 34 µM; in [17], 21 µM. The half-maximal inhibitory concentration (IC50) at 72 h in data set [10] is greater than 167 µM. The “Max. β-Gal. Activtity Conc.” value in [9] came to 20 µM.

Consider `CC(O)CNc1nc(NCc2ccccc2)c2ncn(C(C)C)c2n1` (centres unmarked) [Compound A216], for which the IC50 in data set [1] was 27 µM; in data set [2] it was 59 µM; in the data set on breast carcinoma MCF7 [3], 30.4 µM; in [4] it was 36 µM; in [5] it was 80 µM; in [6] it was 44 µM. For the same compound, the IC50 in data set [7] was 58 µM; in [8], greater than 167 µM; on CDK2/cyclin E (setting [19]), 1.5 µM; at CDK9/cyclin T (setting [20]) it was 1.3 µM.

Take `Cn1cnc2c(NCc3ccccc3)nc(NC3CCC(N)CC3)nc21` (centres unmarked) [Compound A1141]: the IC50 in [1] was determined as 43 µM; in data set [2], 75 µM; with breast carcinoma MCF7 [3], 55 µM; in [4] it was 48 µM; in [5] it was 91 µM; in [6] it was 74 µM. The half-inhibitory concentration (IC50) in [7] was 86 µM; in [8] it was greater than 167 µM; on CDK1/cyclin B (setting [18]), 3.1 µM; at CDK2/cyclin E (setting [19]), 3.4 µM; on CDK9/cyclin T (setting [20]) it was 3.3 µM.

Regarding `CC(C)C(CO)Nc1nc(NCc2ccccc2)c2ncn(C(C)C)c2n1` (centres unmarked) [Compound A2161], the IC50 is 4.3 µM in data set [1]; 18 µM in [2]; 5.9 µM in the data set with breast carcinoma MCF7 [3]; 6.5 µM in data set [4]; 15.4 µM in data set [5]; 11.5 µM in data set [6]. The IC50 in [7] was 22 µM; in data set [8] it was greater than 167 µM; at CDK9/cyclin T (setting [20]), 0.5 µM.

For the compound `O=c1[nH]c(=O)n([C@H]2C[C@H](O)[C@@H](CO)O2)cc1I` [Iododeoxyuridine, 1-(2-Deoxy-β-D-ribofuranosyl)-5-iodouracil], the “inhibition of virus replication (in words)” value in the data set on VV was “inhibited equally well”.
